Some results are limits rather than exact numbers.

Among the data in patent US20060089371A1, “Phenyl or heteroaryl amino alkane derivatives as ip receptor antagonist” (Bayer HealthCare AG, priority 2002, published 2006) are IC50 and melting point values, retold here.

One series has as its target T1, IP receptor (Homo sapiens, UniProt P43119).
T1 construct: one million cells in 160 μl aliquot of cell suspension were put in a well of 96 well plate; host or cells: HEL 92.1.7 human erythroleukemia cells (whole cells)
Put plainly: IP receptor binding/cAMP in HEL cells ([3H]-iloprost binding, Assay 1; iloprost-induced cAMP production, Assay 2). Conditions: compounds of about 40 to 90% purity, read-out: In vitro activity grade (IC50 class). An outline of the steps:
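For binding (Assay 1), 1×10^6 HEL 92.1.7 cells in 50 mM Tris-HCl, 5 mM MgCl2, pH 7.5 were incubated with [3H]-iloprost (0.02 μCi) for 30 min at RT and filter-counted; a 100 μM iloprost solution defined non-specific binding. Compounds were of 40-90% purity.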
For orientation: cAMP levels reflect the balance of adenylyl cyclase and phosphodiesterase activity.

T1 sequence (P43119 whole entry): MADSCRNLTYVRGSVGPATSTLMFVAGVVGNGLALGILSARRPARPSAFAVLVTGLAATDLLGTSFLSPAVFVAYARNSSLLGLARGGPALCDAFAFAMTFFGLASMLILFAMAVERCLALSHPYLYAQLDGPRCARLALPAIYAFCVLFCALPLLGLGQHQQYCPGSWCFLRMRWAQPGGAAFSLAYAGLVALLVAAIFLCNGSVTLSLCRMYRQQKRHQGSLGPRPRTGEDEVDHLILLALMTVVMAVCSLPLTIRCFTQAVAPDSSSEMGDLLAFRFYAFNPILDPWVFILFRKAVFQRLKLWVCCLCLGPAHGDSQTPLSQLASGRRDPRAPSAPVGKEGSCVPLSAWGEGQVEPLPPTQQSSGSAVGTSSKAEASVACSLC

Compound `O=C(O)[C@H](Cc1ccccc1)Nc1cc(-c2ccc(OCc3ccccc3)nc2)ncn1` [Example 25-1, N-{6-[6-(benzyloxy)pyridin-3-yl]pyrimidin-4-yl}phenylalanine] displayed a melting point of 130 to 133 °C. For the same compound, on IP receptor, the half-inhibitory concentration (IC50) was < 100 nM.

As for `O=C(O)C(Cc1ccccc1)Nc1cccc(-c2ccc(OCc3ccccc3)nc2)c1` (stereo not drawn) [Example 25-2], the melting point fell in the range of 150 to 153 °C. Also, the IC50 on IP receptor lay within 100 to 1000 nM.

In turn, `O=C(O)C(Cc1ccccc1)Nc1cc(-c2ccc(OCC3CC3)nc2)ncn1` (stereo not drawn) [Example 25-3] displayed a melting point of 113 to 114 °C. Moreover, the IC50 on IP receptor is < 100 nM.

For the compound `O=C(NO)C(Cc1ccccc1)Nc1cc(-c2ccc(OCc3ccccc3)cc2)ncn1` (stereo not drawn) [Example 26-1, N-{6-[4-(Benzyloxy)phenyl]pyrimidin-4-yl}-N-hydroxyphenylalaninamide], the melting point lay within 235 to 239 °C. In addition, the IC50 on IP receptor is < 100 nM.

Turning to `c1ccc(COc2ccc(-c3cc(NC(Cc4ccccc4)c4nnn[nH]4)ncn3)cc2)cc1` (stereo not drawn) [Example 27-1, 6-[4-(Benzyloxy)phenyl]-N-[2-phenyl-1-(1H-tetrazol-5-yl)ethyl)pyrimidin-4-amine], the melting point amounted to 150 °C. Also, the IC50 on IP receptor is < 100 nM.

In the case of `O=C(O)[C@H](Cc1ccccc1)Nc1ccnc(-c2ccc(OCc3ccccc3)cc2)c1` [Example 28-1, N-{2-[4-(Benzyloxy)phenyl]pyridin-4-yl}phenylalanine], the melting point was 137 to 139 °C. Moreover, the IC50 at IP receptor was < 100 nM.

As usually defined, the IC50 is the concentration that gives 50% inhibition. A word on the melting point: it is the temperature, or range, at which the solid turns liquid.
